Among the test systems are SW-620; MDA-MB-231; SF-295; DU-145; K562; HCT-15; COLO 205; KM12; PC-3; HT-29; TK-10; SK-MEL-5; NCI/ADR-RES; A549; SF-268; NCI-H23; IGROV-1; HL-60; HOP-62; RPMI-8226.
What all share (assay): NCI anticancer screen, dose series, 48 h

Consider eleven compounds from ChEMBL document CHEMBL1201862, “PubChem BioAssay data set” (2004).

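Protocol summary: plate cells (96-well), add compound at 5 concentrations, incubate 48 h, interpolate endpoints linearly. Abbreviation: GI50, concentration required for 50% inhibition of growth.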 The source made the active and inactive calls. Cut-off read from the data, not from the text of the source: active = GI50 up to about 1.1 µM and inactive = higher.

For the compound `CCOC(=O)C1(CO)CSCCSC1`, the GI50 is > 100 µM (inactive) in the assay on SW-620; > 100 µM (inactive) in the assay with MDA-MB-231; > 100 µM (inactive) in the assay on SF-295; > 100 µM (inactive) in the assay with DU-145; > 100 µM (inactive) with K562; over 100 µM in the assay on HCT-15. Besides, the GI50 in the assay on COLO 205, in the assay with KM12, in the assay with PC-3, in the assay with HT-29, with TK-10 and in the assay on SK-MEL-5 was > 100 µM (inactive) in each case. Besides, the GI50 in the assay with NCI/ADR-RES, in the assay on A549, with SF-268 and in the assay on NCI-H23 was > 100 µM (inactive) each time.
Take `O=C1NC(=O)C(CC(C(=O)C(=O)Nc2ccccc2Cl)C(=O)c2ccc3ccccc3c2)C(=O)N1` (stereo not drawn): the GI50 in the assay on SW-620 is > 100 µM (inactive); with MDA-MB-231, > 100 µM (inactive); in the assay on SF-295, > 100 µM (inactive); in the assay with DU-145 it was > 100 µM (inactive); in the assay with HCT-15 it was over 100 µM; in the assay with COLO 205, > 100 µM (inactive). Moreover, the GI50 in the assay on KM12, in the assay on PC-3, with IGROV-1, in the assay with HT-29, in the assay with TK-10 and in the assay on SK-MEL-5 was > 100 µM (inactive) throughout. In addition, the GI50 in the assay on NCI/ADR-RES, in the assay on HL-60, with A549, with SF-268, in the assay with NCI-H23 and in the assay with HOP-62 was > 100 µM (inactive) throughout.
`O=c1c2c3c(sc2nc2n1NC=NN2)CCCC3`: the GI50 in the assay on SW-620 is 17.6 µM (inactive); with MDA-MB-231 it was 13.4 µM (inactive); in the assay with SF-295, 15.8 µM (inactive); with DU-145, 36.6 µM (inactive); with K562, 2.15 µM (inactive); in the assay on HCT-15 it was 17.4 µM. Further, the GI50 with COLO 205 was 25.4 µM (inactive); with KM12, 18.1 µM (inactive); in the assay with PC-3 it was 24.2 µM (inactive); in the assay on IGROV-1, 26.6 µM (inactive); in the assay with HT-29, 17.5 µM (inactive); in the assay with TK-10, 24 µM (inactive). The GI50 was 16.4 µM (inactive) in the assay on SK-MEL-5; 26.7 µM (inactive) with NCI/ADR-RES; 1.2 µM (inactive) with HL-60; > 83.4 µM (inactive) with A549; 17.5 µM (inactive) in the assay on SF-268; 26.2 µM (inactive) in the assay on NCI-H23. The GI50 with RPMI-8226 is 20.5 µM (inactive).
On to `NCCNc1ccc(NCCN)c2c1C(=O)c1c(O)ccc(O)c1C2=O`, for which the GI50 is 0.0246 µM (active) in the assay with SW-620; 0.681 µM (active) with MDA-MB-231; 0.00445 µM (active) in the assay on SF-295; 0.109 µM (active) with DU-145; 0.161 µM in the assay on HCT-15; 1.08 µM (active) in the assay on COLO 205. The GI50 in the assay with KM12 was 0.118 µM (active); in the assay on PC-3, 0.205 µM (active); in the assay on IGROV-1, 0.0873 µM (active); with HT-29, 0.0659 µM (active); with TK-10 it was 0.428 µM (active); in the assay on SK-MEL-5, 0.129 µM (active). The GI50 in the assay on NCI/ADR-RES is 0.192 µM (active); in the assay with HL-60 it was 0.0407 µM (active); in the assay with A549, 0.00392 µM (active); in the assay with SF-268 it was 0.00721 µM (active); in the assay on NCI-H23, 0.00728 µM (active); with RPMI-8226 it was 0.0106 µM (active).
In the case of `CCn1c(=O)c2c3ccc(O)cc3[nH]c2c2ccc(O)cc21`, the GI50 was > 100 µM (inactive) in the assay on SW-620; 64.4 µM (inactive) in the assay on MDA-MB-231; > 100 µM (inactive) in the assay on SF-295; > 100 µM (inactive) with DU-145; 83.6 µM (inactive) with K562; over 100 µM with HCT-15. In addition, the GI50 with COLO 205, in the assay with KM12, in the assay on PC-3, in the assay on IGROV-1, with HT-29 and in the assay on TK-10 was > 100 µM (inactive) each time. Moreover, the GI50 in the assay on SK-MEL-5 is 30.9 µM (inactive); in the assay with NCI/ADR-RES, > 100 µM (inactive); in the assay with A549, > 100 µM (inactive); in the assay with SF-268 it was > 100 µM (inactive); in the assay on NCI-H23, > 100 µM (inactive); in the assay on HOP-62 it was > 100 µM (inactive).
Regarding `Cc1ccc(S(=O)(=O)N2CCc3cc(O)c([N+](=O)[O-])cc32)cc1`, the GI50 was > 100 µM (inactive) in the assay on SW-620; > 100 µM (inactive) in the assay on MDA-MB-231; > 100 µM (inactive) in the assay on SF-295; > 100 µM (inactive) in the assay on DU-145; over 100 µM in the assay with HCT-15; > 100 µM (inactive) with COLO 205. Also, the GI50 in the assay on KM12, with PC-3, in the assay with IGROV-1, in the assay with TK-10, in the assay with SK-MEL-5 and in the assay with NCI/ADR-RES was > 100 µM (inactive) in each case. Besides, the GI50 with HL-60, in the assay on A549, with SF-268, in the assay on NCI-H23 and in the assay with HOP-62 was > 100 µM (inactive) throughout.
Take `O/N=C1/CC2(N3CCOCC3)C3CC/C(=N\O)C2CC1(Cc1ccccc1)C3` (stereo not drawn): the GI50 in the assay with SW-620 is > 100 µM (inactive); in the assay with MDA-MB-231, > 100 µM (inactive); in the assay on SF-295, > 100 µM (inactive); with DU-145 it was > 100 µM (inactive); in the assay on K562, 74 µM (inactive); in the assay with HCT-15 it was over 100 µM. The GI50 in the assay with COLO 205 was 82 µM (inactive); in the assay on KM12 it was > 100 µM (inactive); in the assay with PC-3, > 100 µM (inactive); with IGROV-1, > 100 µM (inactive); with HT-29, 95.9 µM (inactive); in the assay with SK-MEL-5, 44.4 µM (inactive). Moreover, the GI50 was > 100 µM (inactive) with NCI/ADR-RES; 67 µM (inactive) with HL-60; > 100 µM (inactive) with A549; > 100 µM (inactive) in the assay with SF-268; > 100 µM (inactive) in the assay on NCI-H23; > 100 µM (inactive) in the assay with HOP-62.
Take `O=c1[nH]c(NCc2ccncc2)nc2[nH]cnc12`: the GI50 was > 100 µM (inactive) with SW-620; > 100 µM (inactive) in the assay on MDA-MB-231; > 100 µM (inactive) with SF-295; > 100 µM (inactive) with DU-145; > 100 µM (inactive) in the assay on K562; over 100 µM in the assay on HCT-15. The GI50 in the assay on COLO 205, in the assay on KM12, in the assay with PC-3, in the assay with IGROV-1, with HT-29 and with TK-10 was > 100 µM (inactive) in each case. Moreover, the GI50 with SK-MEL-5, with NCI/ADR-RES, with A549, in the assay with SF-268, with NCI-H23 and with RPMI-8226 was > 100 µM (inactive) each time. For the same compound, the GI50 in the assay on HOP-62 was > 100 µM (inactive).
`N#CC(c1ccccc1)N(CCOCCOCCN(C(=O)c1ccccc1)C(C#N)c1ccccc1)C(=O)c1ccccc1` (stereo not drawn): the GI50 was > 100 µM (inactive) in the assay with SW-620; > 100 µM (inactive) in the assay with MDA-MB-231; > 100 µM (inactive) in the assay with SF-295; > 100 µM (inactive) in the assay on DU-145; 56.6 µM (inactive) in the assay on K562; over 100 µM with HCT-15. The GI50 in the assay with COLO 205 is > 100 µM (inactive); with KM12, > 100 µM (inactive); in the assay with PC-3, 37.5 µM (inactive); in the assay on IGROV-1 it was > 100 µM (inactive); in the assay on HT-29, > 100 µM (inactive); in the assay with TK-10, 78.2 µM (inactive). Further, the GI50 was 34.9 µM (inactive) with SK-MEL-5; 28.2 µM (inactive) in the assay on NCI/ADR-RES; 36.2 µM (inactive) in the assay with HL-60; 98.9 µM (inactive) in the assay with A549; > 100 µM (inactive) with SF-268; 84.7 µM (inactive) with NCI-H23.
For `CN(C)c1nc2n(CCO)ccnc-2c(=O)n1`, the GI50 was > 100 µM (inactive) in the assay on SW-620; > 100 µM (inactive) in the assay with MDA-MB-231; > 100 µM (inactive) in the assay with SF-295; > 100 µM (inactive) in the assay on DU-145; > 100 µM (inactive) with K562; over 100 µM in the assay with HCT-15. Also, the GI50 with COLO 205, with KM12, in the assay with PC-3, in the assay with IGROV-1, with HT-29 and with TK-10 was > 100 µM (inactive) in each case. For the same compound, the GI50 in the assay on SK-MEL-5, with NCI/ADR-RES, with A549, in the assay on SF-268, in the assay on NCI-H23 and with RPMI-8226 was > 100 µM (inactive) each time. Also, the GI50 in the assay with HOP-62 is > 100 µM (inactive).
As to `CCc1c(Cc2cc(C)cc(C)c2)n2c(nc1=O)SCC2CBr` (stereo not drawn), the GI50 with SW-620 is > 50 µM (inactive); in the assay with MDA-MB-231 it was 19.6 µM (inactive); with DU-145 it was 23.1 µM (inactive); in the assay on K562 it was > 50 µM (inactive); with HCT-15 it was over 50 µM; with COLO 205 it was > 50 µM (inactive). Further, the GI50 with KM12 was > 50 µM (inactive); with PC-3 it was > 50 µM (inactive); with IGROV-1, 24.2 µM (inactive); with HT-29 it was > 50 µM (inactive); in the assay on TK-10 it was 34 µM (inactive); with SK-MEL-5, > 50 µM (inactive). The GI50 with NCI/ADR-RES, in the assay on HL-60, with A549, in the assay with SF-268, with NCI-H23 and with RPMI-8226 was > 50 µM (inactive) in each case.
